Laboratory results as given in ChEMBL document CHEMBL4028823, “Pharmacological property optimization for allosteric ligands: A medicinal chemistry perspective” (Bioorg Med Chem Lett, 2017).
Blank lines part the entries; values can stand above or below the compound they belong to.

Legend:
[1] = biological target: T1, Muscarinic acetylcholine receptor M1 (Homo sapiens) (UniProt P11229); experiment: Displacement of [3H]NMS from recombinant human mAChR1 expressed in Flp-In-CHO cells after 1 hr by microbeta scintillation counting analysis; type: cell-based
T1 sequence (whole entry): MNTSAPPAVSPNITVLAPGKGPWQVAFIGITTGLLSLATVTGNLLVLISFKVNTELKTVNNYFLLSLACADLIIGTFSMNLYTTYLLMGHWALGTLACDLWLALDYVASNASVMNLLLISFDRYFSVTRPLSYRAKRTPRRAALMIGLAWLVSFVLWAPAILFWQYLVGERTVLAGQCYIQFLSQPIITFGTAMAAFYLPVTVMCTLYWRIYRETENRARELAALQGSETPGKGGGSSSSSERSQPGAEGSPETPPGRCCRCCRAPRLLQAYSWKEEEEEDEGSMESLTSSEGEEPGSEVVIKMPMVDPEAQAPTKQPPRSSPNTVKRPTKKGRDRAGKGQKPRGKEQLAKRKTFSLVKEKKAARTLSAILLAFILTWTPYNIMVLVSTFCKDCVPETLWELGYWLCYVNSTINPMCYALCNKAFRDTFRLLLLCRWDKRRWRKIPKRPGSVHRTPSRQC

[2] = biological target: T2, Muscarinic acetylcholine receptor M2 (Homo sapiens, UniProt P08172); experiment: Displacement of [3H]NMS from wild-type human mAChR2 expressed in Flp-In-CHO cell membranes in presence of mAChR2 agonist acetylcholine after 90 mins by scintillation counting analysis
T2 sequence (P08172 whole entry): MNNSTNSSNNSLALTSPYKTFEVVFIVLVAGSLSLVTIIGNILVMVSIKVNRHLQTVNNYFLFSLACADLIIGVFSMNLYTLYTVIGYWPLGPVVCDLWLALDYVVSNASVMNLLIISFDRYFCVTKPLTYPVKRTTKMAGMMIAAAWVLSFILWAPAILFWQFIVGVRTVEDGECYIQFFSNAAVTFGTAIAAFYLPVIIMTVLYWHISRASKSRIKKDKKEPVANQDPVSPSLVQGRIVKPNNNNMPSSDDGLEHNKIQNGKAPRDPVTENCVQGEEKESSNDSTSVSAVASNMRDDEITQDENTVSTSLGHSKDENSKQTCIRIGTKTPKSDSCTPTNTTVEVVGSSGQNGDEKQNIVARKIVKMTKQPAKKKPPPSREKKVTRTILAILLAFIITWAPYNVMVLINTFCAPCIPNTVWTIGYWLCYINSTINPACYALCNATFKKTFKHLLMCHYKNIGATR

[3] = biological target: T2, Muscarinic acetylcholine receptor M2; experiment: Displacement of [3H]NMS from wild-type human mAChR2 expressed in Flp-in-CHO cell membranes in presence of mAChR2 agonist xanomeline after 90 mins by scintillation counting analysis
[4] = biological target: T3, Tyrosine-protein kinase BTK (Homo sapiens, UniProt Q06187); experiment: Ratio of Kinact to ki for recombinant full length BTK (unknown origin)
[5] = biological target: T3, Tyrosine-protein kinase BTK; experiment: Binding affinity to recombinant full length BTK (unknown origin) assessed as residence time by fluorescent tracer based TR-FRET assay
[6] = biological target: T4, Glycine receptor subunit alpha-1 (Homo sapiens, UniProt P23415); experiment: Positive allosteric modulatory activity at recombinant human glycine alpha1 receptor expressed in HEK293 cells assessed as potentiation of glycine-induced response at -50 mV holding potential in presence of fructose by whole cell patch clamp method; type: cell-based
T4 sequence (P23415 whole entry): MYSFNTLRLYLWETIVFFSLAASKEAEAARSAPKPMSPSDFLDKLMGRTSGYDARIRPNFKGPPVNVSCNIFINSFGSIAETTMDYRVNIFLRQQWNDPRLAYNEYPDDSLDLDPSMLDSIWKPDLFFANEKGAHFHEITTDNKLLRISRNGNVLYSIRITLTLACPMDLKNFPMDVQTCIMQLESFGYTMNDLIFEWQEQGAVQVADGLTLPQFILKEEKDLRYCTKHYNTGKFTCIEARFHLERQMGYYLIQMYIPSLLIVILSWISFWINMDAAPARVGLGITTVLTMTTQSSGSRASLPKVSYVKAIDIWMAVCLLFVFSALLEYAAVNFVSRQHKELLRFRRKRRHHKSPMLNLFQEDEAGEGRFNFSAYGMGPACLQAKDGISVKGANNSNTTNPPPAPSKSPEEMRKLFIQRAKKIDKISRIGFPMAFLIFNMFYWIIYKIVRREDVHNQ

[7] = biological target: T5, C-X-C chemokine receptor type 3 (Homo sapiens) (UniProt P49682); experiment: Displacement of [3H]RAMX3 from CXCR3 (unknown origin) expressed in HEK cells after 1 hrs by microbeta scintillation counter; type: cell-based
T5 sequence (whole entry): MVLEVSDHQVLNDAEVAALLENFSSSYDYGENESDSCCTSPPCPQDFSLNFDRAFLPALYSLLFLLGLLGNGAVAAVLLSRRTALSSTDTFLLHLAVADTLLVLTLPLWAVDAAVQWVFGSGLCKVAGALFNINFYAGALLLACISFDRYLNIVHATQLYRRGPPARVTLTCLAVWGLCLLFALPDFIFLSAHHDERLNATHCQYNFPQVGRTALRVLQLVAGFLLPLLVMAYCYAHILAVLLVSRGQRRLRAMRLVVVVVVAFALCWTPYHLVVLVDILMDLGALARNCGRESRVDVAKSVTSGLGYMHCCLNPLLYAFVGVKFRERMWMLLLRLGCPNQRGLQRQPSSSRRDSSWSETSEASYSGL

[8] = biological target: Metabotropic glutamate receptor 5 (Homo sapiens) (UniProt P41594); experiment: Negative allosteric modulation of mGlu5 receptor (unknown origin) expressed in HEK293A cells assessed as inhibition of glutamate induced-calcium mobilization by Fluo-4 AM dye based fluorescence assay; type: functional, cell-based
[9] = biological target: D(2) dopamine receptor (Homo sapiens) (UniProt P14416)
Description: Agonist activity at D2 long receptor (unknown origin) expressed in Flp-In-CHO cells assessed as change in transduction coefficient by measuring cellular impedance measured immediately at 15 secs interval for 90 mins by xCELLigence assay

[10] = biological target: D(2) dopamine receptor (Homo sapiens) (UniProt P14416); remark: listed apart in the source
Description: Agonist activity at D2 long receptor (unknown origin) expressed in Flp-In-CHO cells assessed as change in transduction coefficient by measuring inhibition of forskolin-induced cAMP production measured after 5 mins in presence of coelenterazine by BRET assay

[11] = biological target: D(2) dopamine receptor (Homo sapiens) (UniProt P14416); remark: listed apart in the source
Description: Displacement of [3H]spiperone from D2 long receptor (unknown origin) expressed in Flp-In-CHO cell membranes assessed as transduction coefficient by measuring dissociation half life after 5 mins by liquid scintillation counter method

[12] = biological target: D(2) dopamine receptor (Homo sapiens) (UniProt P14416); remark: listed apart in the source
Description: Agonist activity at D2 long receptor (unknown origin) expressed in Flp-In-CHO cells assessed as change in transduction coefficient by measuring induction of ERK1/2 phosphorylation after 5 mins by Alphascreen assay

[13] = biological target: D(2) dopamine receptor (Homo sapiens) (UniProt P14416); remark: listed apart in the source
Description: Agonist activity at D2 long receptor (unknown origin) expressed in Flp-In-CHO cells co-expressing Rluc8-tagged GalphaoB assessed as change in transduction coefficient by measuring GalphaoB activation in presence of coelenterazine by BRET assay

[14] = biological target: D(2) dopamine receptor (Homo sapiens) (UniProt P14416); remark: listed apart in the source
Description: Agonist activity at Rluc8-tagged D2 long receptor (unknown origin) expressed in Flp-In-CHO cells co-expressing YFP-tagged beta-arrestin2 assessed as change in transduction coefficient by measuring beta-arrestin2 recruitment measured after 5 mins by BRET assay

[15] = biological target: D(2) dopamine receptor (Homo sapiens) (UniProt P14416); remark: listed apart in the source
Description: Agonist activity at D2 long receptor (unknown origin) expressed in Flp-In-CHO cells co-expressing Rluc8-tagged Galphai1 assessed as change in transduction coefficient by measuring Galphai1 activation after 5 mins in presence of coelenterazine by BRET assay

[16] = biological target: T1, Muscarinic acetylcholine receptor M1 (Homo sapiens); experiment: Displacement of [3H]NMS from recombinant human mAChR1 expressed in CHO cells; type: cell-based

D(2) dopamine receptor (Homo sapiens), sequence (P14416 whole entry): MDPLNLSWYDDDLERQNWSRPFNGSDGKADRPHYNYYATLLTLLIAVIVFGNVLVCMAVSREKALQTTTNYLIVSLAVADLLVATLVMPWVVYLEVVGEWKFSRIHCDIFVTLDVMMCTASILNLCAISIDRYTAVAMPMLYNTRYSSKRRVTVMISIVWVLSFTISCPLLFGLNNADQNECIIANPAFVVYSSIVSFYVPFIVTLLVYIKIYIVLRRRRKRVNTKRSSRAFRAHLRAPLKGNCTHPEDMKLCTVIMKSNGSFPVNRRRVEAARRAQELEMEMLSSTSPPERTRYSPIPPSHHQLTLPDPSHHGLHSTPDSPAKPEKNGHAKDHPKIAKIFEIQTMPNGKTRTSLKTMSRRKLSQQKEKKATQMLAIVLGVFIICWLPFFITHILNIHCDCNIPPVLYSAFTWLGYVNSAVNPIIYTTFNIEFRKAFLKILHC
T3 sequence (Q06187 whole entry): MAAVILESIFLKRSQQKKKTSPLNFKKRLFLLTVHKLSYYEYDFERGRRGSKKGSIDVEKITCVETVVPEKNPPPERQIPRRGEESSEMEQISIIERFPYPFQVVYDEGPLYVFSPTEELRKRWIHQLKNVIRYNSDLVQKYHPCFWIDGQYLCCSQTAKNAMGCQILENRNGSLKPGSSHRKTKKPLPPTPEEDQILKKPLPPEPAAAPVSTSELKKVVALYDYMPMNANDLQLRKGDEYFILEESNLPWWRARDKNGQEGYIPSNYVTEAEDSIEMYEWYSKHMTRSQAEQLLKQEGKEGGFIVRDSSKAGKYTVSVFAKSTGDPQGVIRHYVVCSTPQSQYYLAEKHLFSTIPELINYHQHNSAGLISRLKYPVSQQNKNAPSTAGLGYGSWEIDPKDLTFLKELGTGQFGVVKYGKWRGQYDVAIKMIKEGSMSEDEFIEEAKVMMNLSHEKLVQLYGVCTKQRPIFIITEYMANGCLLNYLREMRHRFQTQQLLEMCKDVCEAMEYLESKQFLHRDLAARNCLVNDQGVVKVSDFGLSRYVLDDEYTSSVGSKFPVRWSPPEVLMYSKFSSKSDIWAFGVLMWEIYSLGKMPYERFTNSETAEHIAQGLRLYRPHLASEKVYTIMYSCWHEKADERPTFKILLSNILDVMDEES
Metabotropic glutamate receptor 5 (Homo sapiens), sequence (P41594 21-1212 limits assumed): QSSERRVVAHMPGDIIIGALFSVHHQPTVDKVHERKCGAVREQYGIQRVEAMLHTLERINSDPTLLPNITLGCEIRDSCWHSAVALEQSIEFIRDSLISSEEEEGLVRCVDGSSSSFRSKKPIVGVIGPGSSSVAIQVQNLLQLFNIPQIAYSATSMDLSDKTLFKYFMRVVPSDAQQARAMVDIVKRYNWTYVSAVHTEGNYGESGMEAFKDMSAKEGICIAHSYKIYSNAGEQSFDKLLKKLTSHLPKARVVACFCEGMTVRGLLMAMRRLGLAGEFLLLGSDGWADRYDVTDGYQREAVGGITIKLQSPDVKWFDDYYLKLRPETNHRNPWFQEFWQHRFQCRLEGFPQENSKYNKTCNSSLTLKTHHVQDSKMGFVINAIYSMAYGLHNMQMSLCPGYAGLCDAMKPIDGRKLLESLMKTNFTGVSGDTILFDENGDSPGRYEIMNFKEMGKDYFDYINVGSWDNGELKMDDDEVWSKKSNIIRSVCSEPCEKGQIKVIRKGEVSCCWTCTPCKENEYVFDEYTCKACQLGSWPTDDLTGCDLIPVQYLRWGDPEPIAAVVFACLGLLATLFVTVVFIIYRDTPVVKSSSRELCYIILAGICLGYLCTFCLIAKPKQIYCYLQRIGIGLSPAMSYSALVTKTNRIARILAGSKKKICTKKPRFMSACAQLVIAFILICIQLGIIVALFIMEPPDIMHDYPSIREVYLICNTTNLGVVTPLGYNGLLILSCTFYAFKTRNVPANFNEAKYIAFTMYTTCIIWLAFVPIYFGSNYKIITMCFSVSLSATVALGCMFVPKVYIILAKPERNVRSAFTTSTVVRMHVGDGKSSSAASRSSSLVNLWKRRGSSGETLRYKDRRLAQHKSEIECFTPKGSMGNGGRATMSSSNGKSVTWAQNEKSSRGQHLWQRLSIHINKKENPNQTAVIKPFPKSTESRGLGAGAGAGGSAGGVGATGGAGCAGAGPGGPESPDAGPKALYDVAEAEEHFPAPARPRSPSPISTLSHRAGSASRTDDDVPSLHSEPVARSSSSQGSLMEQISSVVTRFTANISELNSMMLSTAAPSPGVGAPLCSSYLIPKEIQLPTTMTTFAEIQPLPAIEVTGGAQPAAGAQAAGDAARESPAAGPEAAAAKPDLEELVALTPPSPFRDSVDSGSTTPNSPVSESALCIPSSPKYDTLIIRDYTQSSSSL

Structure (SMILES): COc1nc2sc(C(=O)NC3CC3)c(N)c2c(C)c1Cl
Ki [2]: 3.16 µM | Ki [3]: 0.158 µM

Structure (SMILES): CC(C)(/C=C(\C#N)C(=O)N1CCC[C@@H]1Cn1nc(-c2ccc(Oc3ccccc3)cc2F)c2c(N)ncnc21)NC1COC1
Ratio [4]: 0.4 | TIME [5]: 167 h

Structure (SMILES): O=C(CO)[C@@H](O)[C@H](O)[C@H](O)CO [FRUCTOSE]
EC50 [6]: 12.6 µM

Structure (SMILES): CCOc1cc(CC(=O)N(Cc2ccc(OC)c(B(O)O)c2)C(C)c2nc3ncccc3c(=O)n2-c2ccc(C)cc2)ccc1F (stereo not given)
pKb [7]: 6.1

Structure (SMILES): COc1ccc(Cn2cc(C(=O)O)c(=O)c3ccccc32)cc1
pKb [1]: 4.8

Structure (SMILES): C#CCOc1ccc(C(=O)c2ccc(OCCOc3cccc(C#Cc4csc(C)n4)c3)cc2)cc1
pKb [8]: 6.1

Structure (SMILES): CN(C)C(=O)N[C@H]1CC[C@H](CCN2CCN(c3cccc(Cl)c3Cl)CC2)CC1
deltalog(Tau/KA) [9]: 0.3 | deltalog(Tau/KA) [10]: 0.2 | T1/2 [11]: 1.4 min | deltalog(Tau/KA) [12]: -1.1 | deltalog(Tau/KA) [13]: 0.7

Structure (SMILES): O=c1[nH]c2cccc(N3CCN(Cc4cccc(-c5ccccc5)c4)CC3)c2o1
deltalog(Tau/KA) [14]: -0.6 | deltalog(Tau/KA) [9]: -0.3 | deltalog(Tau/KA) [10]: -0.2 | deltalog(Tau/KA) [15]: 1.4 | T1/2 [11]: 86 min | deltalog(Tau/KA) [12]: -1.2 | deltalog(Tau/KA) [13]: 0.3

Structure (SMILES): O=C(O)c1cn(Cc2ccc(N=C=S)cc2)c2ccccc2c1=O
pKb [16]: 5.2

Second part, the compound after the results:

pKb [1]: 4.3
Structure (SMILES): Cn1cc(-c2ccc(Cc3ccc4ncn([C@H]5CCCC[C@@H]5O)c(=O)c4c3)cn2)cn1

pKb [1]: 5.1
Structure (SMILES): Cc1c(Cc2ccc(-c3cnn(C)c3)nc2)cc2c(=O)n([C@H]3CCCC[C@@H]3O)cnc2c1C

pKb [1]: 5.8
Structure (SMILES): Cn1cc(-c2ccc(Cc3cc4c(=O)n([C@H]5CCCC[C@@H]5O)cnc4c4ccccc34)cn2)cn1

pKb [1]: 5.2
Structure (SMILES): Cc1cc2ncn([C@H]3CCCC[C@@H]3O)c(=O)c2cc1Cc1ccc(-c2cnn(C)c2)nc1
